ChEMBL document CHEMBL3871305, “Imidazopyridyl compounds as aldosterone synthase inhibitors” (Bioorg Med Chem Lett, 2017)

Columns and labels:
in vitro [1] = conditions: rat, liver microsomes
in vitro [2] = conditions: rhesus monkey, liver microsomes
in vitro [3] = conditions: human, liver microsomes
[4] = Volume of distribution at steady state in Wistar Han rat at 1 mg/kg, iv or 2 mg/kg, po; format: ADME, organism-based; conditions: in vivo, read-out: Vdss
[5] = Dose normalized AUC in Wistar Han rat at 2 mg/kg, po; format: ADME, organism-based; conditions: in vivo
[6] = Plasma clearance in Wistar Han rat at 1 mg/kg, iv or 2 mg/kg, po; format: ADME, organism-based
[7] = Half life in Wistar Han rat at 1 mg/kg, iv or 2 mg/kg, po; format: ADME, organism-based; conditions: in vivo
[8] = Cmax in Wistar Han rat at 1 mg/kg, iv or 2 mg/kg, po; format: ADME, organism-based; conditions: in vivo
[9] = Oral bioavailability in Wistar Han rat at 2 mg/kg; format: ADME, organism-based; conditions: in vivo
[10] = MRT in Wistar Han rat at 1 mg/kg, iv or 2 mg/kg, po; format: ADME, organism-based; conditions: in vivo

Row | SMILES | remaining at 0.5 h, 1 µM (in vitro [1]) | remaining at 0.5 h, 1 µM (in vitro [2]) | remaining at 0.5 h, 1 µM (in vitro [3]) | Vd [4] | AUC/dose [5] | clearance [6] | half-life [7] | Cmax [8] | bioavailability [9] | MRT [10]
1 | Fc1cncc(-c2nc3ccc(F)cn3c2C2CC2)c1 | 70% | 29% | 93% | – | – | – | – | – | – | –
2 | CCc1c(F)cncc1-c1nc2ccc(F)cn2c1C1CC1 | 2% | 0% | 37% | – | – | – | – | – | – | –
3 | C[C@](O)(c1cncc(-c2nc3ccc(F)cn3c2C2CC2)c1)C(F)(F)F | 38% | 31% | 88% | 0.82 L/kg | 0.92 µM·kg·h/mg | 23 mL/min/kg | 36.6 min | 700 nM | 47% | 34.8 min

The remaining lines, values ahead:

Row | remaining at 0.5 h, 1 µM (in vitro [1]) | remaining at 0.5 h, 1 µM (in vitro [2]) | remaining at 0.5 h, 1 µM (in vitro [3]) | Vd [4] | AUC/dose [5] | clearance [6] | half-life [7] | Cmax [8] | bioavailability [9] | MRT [10] | SMILES
4 | 33% | 31% | 96% | – | – | – | – | – | – | – | C[C@@](O)(c1cncc(-c2nc3ccc(F)cn3c2C2CC2)c1)C(F)(F)F
5 | 80% | 87% | 93% | – | – | – | – | – | – | – | Fc1cncc(-c2nc3cc(F)c(Cl)cn3c2C2CC2)c1
